In ChEMBL document CHEMBL5518196, “Discovery of potent thiazolidin-4-one sulfone derivatives for inhibition of proliferation of osteosarcoma in vitro and in vivo” (Eur J Med Chem, 2024):
Calls of active or inactive are those of the source. No cut-off for these calls is given here.

Tested on: not listed separately
Assay: Metabolic stability in human liver microsomes assessed as bioavailability at 0.1 uM preincubated for 10 mins followed by NADPH addition and measured upto 60 mins by LC-MS/MS analysis
Format: ADME, Microsome
Conditions: time < 70 min

Compared with `COc1cccnc1N1C(=O)CS(=O)(=O)C1c1cccc(C(=O)NCCCCc2ccccc2)n1` (centres undefined), `COCCCCNC(=O)c1cccc(C2N(c3ccccn3)C(=O)CS2(=O)=O)n1` (centres undefined) is higher in bioavailability at 0.1 µM: 1.94% for the first, 45.8% for the second.

With `Cc1ccnc(N2C(=O)CS[C@@H]2c2cccc(C(=O)NCCCCn3cccn3)c2)c1` the bioavailability at 0.1 µM was 13.2%.

Tested on: not listed separately
Assay: Metabolic stability in mouse liver microsomes assessed as half-life at 0.1 uM preincubated for 10 mins followed by NADPH addition and measured upto 60 mins by LC-MS/MS analysis
Format: ADME, Microsome
Conditions: time < 70 min

Going from `COc1cccnc1N1C(=O)CS(=O)(=O)C1c1cccc(C(=O)NCCCCc2ccccc2)n1` (centres undefined) to `COCCCCNC(=O)c1cccc(C2N(c3ccccn3)C(=O)CS2(=O)=O)n1` (centres undefined), the half-life at 0.1 µM rises from 1.03 min to 56.5 min (55-fold).

`Cc1ccnc(N2C(=O)CS[C@@H]2c2cccc(C(=O)NCCCCn3cccn3)c2)c1` gave a half-life at 0.1 µM of 5.36 min.

Tested on: HOS-TE85
Assay: Antitumor activity against human MNNG/HOS cells xenografted in female BALB/c mouse assessed as tumor growth inhibition at 30 mg/kg, po administered twice daily for 23 days relative to control
Format: functional
Conditions: HOS-TE85, 552 h, time 23 day, read-out: TGI

`CNC(=O)c1cc(Oc2ccc(NC(=O)Nc3ccc(Cl)c(C(F)(F)F)c3)cc2)ccn1` [SORAFENIB] gave an inhibition in vivo at 30 mg/kg of 39.8%.

Tested on: not listed separately
Assay: Metabolic stability in human liver microsomes assessed as half-life at 0.1 uM preincubated for 10 mins followed by NADPH addition and measured upto 60 mins by LC-MS/MS analysis
Format: ADME, Microsome
Conditions: time < 70 min

Compared with `COc1cccnc1N1C(=O)CS(=O)(=O)C1c1cccc(C(=O)NCCCCc2ccccc2)n1` (centres undefined), `COCCCCNC(=O)c1cccc(C2N(c3ccccn3)C(=O)CS2(=O)=O)n1` (centres undefined) is 43-fold higher in half-life at 0.1 µM: 2.12 min for the first, 90.6 min for the second.

In the case of `Cc1ccnc(N2C(=O)CS[C@@H]2c2cccc(C(=O)NCCCCn3cccn3)c2)c1`, the half-life at 0.1 µM is reported as 16.3 min.

Tested on: not listed separately
Assay: Half-life in male Wistar rat at 100 mg/kg, po
Conditions: in vivo

Compound `CNC(=O)c1cc(Oc2ccc(NC(=O)Nc3ccc(Cl)c(C(F)(F)F)c3)cc2)ccn1` [SORAFENIB] has a half-life of 1310 min.

Tested on: HOS-TE85
Assay: Antiproliferative activity against human MNNG/HOS cells assessed as inhibition of cell growth incubated for 24 to 72 hrs by CellTiter-Glo luminescent cell viability assay
Format: functional, cell-based
Conditions: not given

Compound `CNC(=O)c1cc(Oc2ccc(NC(=O)Nc3ccc(Cl)c(C(F)(F)F)c3)cc2)ccn1` [SORAFENIB] has an IC50 of 4810 nM.

Tested on: HOS-TE85
Assay: Antiproliferative activity against human MNNG/HOS cells assessed as inhibition of cell growth incubated for 72 hrs by CCK8 assay
Format: functional, cell-based
Conditions: HOS-TE85, 72 h

First: COc1cccnc1N1C(=O)CS(=O)(=O)C1c1cccc(C(=O)NCCCCc2ccccc2)n1 (centres undefined)
Second: O=C(NCCCCc1ccccc1)c1cccc(C2N(c3ncccc3O)C(=O)CS2(=O)=O)n1 (centres undefined)
The IC50 of the first is 7.5-fold lower: 6 nM for the first, 45 nM for the second.

Compared with `O=C(NCCCCc1ccccc1)c1cccc(C2N(c3cccc(Cl)c3)C(=O)CS2(=O)=O)n1` (centres undefined), `O=C(NCCCCc1ccccc1)c1cccc(C2N(c3cccc(F)c3)C(=O)CS2(=O)=O)n1` (centres undefined) is 25-fold lower in IC50: 430 nM for the first, 17 nM for the second. The second is the more potent here.

Compared with `O=C(O)c1cc(C(=O)NCCCCc2ccccc2)cc(C2N(c3ccccc3)C(=O)CS2(=O)=O)c1` (centres undefined), `C#Cc1cc(C(=O)NCCCCc2ccccc2)cc(C2N(c3ccccc3)C(=O)CS2(=O)=O)c1` (centres undefined) is lower in IC50: greater than 10000 nM for the first, 9 nM for the second.

Going from `Cc1ccc(N2C(=O)CS(=O)(=O)C2c2cccc(C(=O)NCCCCc3ccccc3)n2)nc1` (centres undefined) to `O=C(NCCCCc1ccccc1)c1cccc(C2N(c3ccc(F)cn3)C(=O)CS2(=O)=O)n1` (centres undefined), the IC50 falls from 31 nM to 20 nM (1.6-fold). The second is the more potent here.

`O=C(CCCNC(=O)c1cccc(C2N(c3ccccn3)C(=O)CS2(=O)=O)n1)Nc1ccc(F)cc1` (centres undefined) and `O=C(CCCNC(=O)c1cccc(C2N(c3ccccn3)C(=O)CS2(=O)=O)n1)Nc1ccccc1` (centres undefined) cannot be ordered by IC50: greater than 1000 nM for the first, greater than 1000 nM for the second.

Compared with `COCCCCNC(=O)c1cccc(C2N(c3ccccn3)C(=O)CS2(=O)=O)n1` (centres undefined), `COCCCNC(=O)c1cccc(C2N(c3ccccn3)C(=O)CS2(=O)=O)n1` (centres undefined) is 6.2-fold higher in IC50: 149 nM for the first, 926 nM for the second. The first is the more potent here.

Going from `O=C(NCCCCn1cccn1)c1cccc(C2N(c3ccccn3)C(=O)CS2(=O)=O)n1` (centres undefined) to `COC(=O)CCCCNC(=O)c1cccc(C2N(c3ccccn3)C(=O)CS2(=O)=O)n1` (centres undefined), the IC50 falls from 979 nM to 225 nM (4.4-fold).

Compared with `O=C(NCCCCc1ccccc1)c1cccc(C2N(c3ccc[n+]([O-])c3)C(=O)CS2(=O)=O)c1` (centres undefined), `O=C(NCCCCc1ccccc1)c1cccc(C2N(c3cccc(Cl)c3)C(=O)CS2(=O)=O)c1` (centres undefined) is lower in IC50: greater than 10000 nM for the first, 75 nM for the second. The second is the more potent here.

`COC(=O)c1cccc(C2SCC(=O)N2c2ccccn2)n1` (centres undefined) and `COC(=O)CCNC(=O)c1cccc(C2N(c3ccccn3)C(=O)CS2(=O)=O)n1` (centres undefined) cannot be ordered by IC50: greater than 1000 nM for the first, greater than 1000 nM for the second.

`CCCCNC(=O)c1cccc(C2N(c3ccccc3)C(=O)CS2(=O)=O)c1` (centres undefined) and `COC(=O)c1cccc(C2N(c3ccccc3)C(=O)CS2(=O)=O)c1` (centres undefined) cannot be ordered by IC50: greater than 10000 nM for the first, greater than 10000 nM for the second.

`Cc1cc(N2C(=O)C[S+]([O-])C2c2cccc(C(=O)NCCCCc3ccccc3)c2)no1` (centres undefined) and `Cc1cc(N2C(=O)CS(=O)(=O)C2c2cccc(C(=O)NCCCCc3ccccc3)c2)no1` (centres undefined) are within 1.5-fold of each other in IC50: 354 nM for the first, 447 nM for the second.

`O=C(NCCCCc1ccccc1)c1cccc(C2N(C3CC3)C(=O)CS2(=O)=O)c1` (centres undefined) and `O=C(NCCCCc1ccccc1)c1cccc(C2N(C3CCOCC3)C(=O)CS2(=O)=O)c1` (centres undefined) cannot be ordered by IC50: greater than 10000 nM for the first, greater than 10000 nM for the second.

`O=C(NCCCCc1ccccc1)c1cccc(C2N(Cc3ccccc3)C(=O)CS2(=O)=O)c1` (centres undefined) and `O=C(NCCCCc1ccccc1)c1cccc(C2N(Cc3ccccc3)C(=O)C[S+]2[O-])c1` (centres undefined) cannot be ordered by IC50: greater than 10000 nM for the first, greater than 10000 nM for the second.

Compared with `O=C(NCCCCc1ccccc1)c1cccc(C2N(c3ccc4c(c3)OCO4)C(=O)CS2(=O)=O)c1` (centres undefined), `Cc1cccc(N2C(=O)CS(=O)(=O)C2c2cccc(C(=O)NCCCCc3ccccc3)c2)c1` (centres undefined) is 3.2-fold higher in IC50: 73 nM for the first, 230 nM for the second.

Going from `COCCCCNC(=O)c1cccc([C@H]2N(c3ccc(F)cn3)C(=O)CS2(=O)=O)n1` to `COCCCCNC(=O)c1cccc(C2N(c3ccc(F)cn3)C(=O)CS2(=O)=O)n1` (centres undefined), the IC50 rises from 137 nM to 283 nM (2.1-fold). The first is the more potent here.

Compared with `COCCCCNC(=O)c1cccc([C@@H]2N(c3ncccc3OC)C(=O)CS2(=O)=O)n1`, `COCCCCNC(=O)c1cccc(C2N(c3ncccc3C)C(=O)CS2(=O)=O)n1` (centres undefined) is 6.2-fold higher in IC50: 113 nM for the first, 702 nM for the second.

`COCCCCNC(=O)c1cccc(C2N(c3ccc(C)cn3)C(=O)CS2(=O)=O)n1` (centres undefined) and `COCCCCNC(=O)c1cccc([C@@H]2N(c3ccc(F)cn3)C(=O)CS2(=O)=O)n1` are within 1.5-fold of each other in IC50: 262 nM for the first, 272 nM for the second.

Compared with `O=C(NCCCCc1ccccc1)c1cccc(C2N(c3cccc4ccccc34)C(=O)CS2(=O)=O)c1` (centres undefined), `O=C(NCCCCc1ccccc1)c1cccc(C2N(c3cccc4cccnc34)C(=O)CS2(=O)=O)c1` (centres undefined) is lower in IC50: greater than 10000 nM for the first, 25 nM for the second. The second is the more potent here.

First: O=C1CS(=O)(=O)C(c2cccc(C(=O)NCCCCc3ccccc3)c2)N1 (centres undefined)
Second: COc1ccccc1N1C(=O)CS(=O)(=O)C1c1cccc(C(=O)NCCCCc2ccccc2)c1 (centres undefined)
The IC50 of the first is higher: greater than 10000 nM for the first, 31 nM for the second. The second is the more potent here.

Going from `Cc1ccnc(N2C(=O)CS(=O)(=O)C2c2cccc(C(=O)NCCCCc3ccccc3)n2)c1` (centres undefined) to `COc1ccnc(N2C(=O)CS(=O)(=O)C2c2cccc(C(=O)NCCCCc3ccccc3)n2)c1` (centres undefined), the IC50 rises from 33 nM to 178 nM (5.4-fold). The first is the more potent here.

`O=C(NCCCC(=O)N1CCCC1)c1cccc(C2N(c3ccccn3)C(=O)CS2(=O)=O)n1` (centres undefined) and `CCN(CC)C(=O)CCCNC(=O)c1cccc(C2N(c3ccccn3)C(=O)CS2(=O)=O)n1` (centres undefined) cannot be ordered by IC50: greater than 1000 nM for the first, greater than 1000 nM for the second.

Going from `O=C(CCCCc1ccccc1)Nc1cccc(C2N(c3ccccc3)C(=O)CS2(=O)=O)c1` (centres undefined) to `O=C(NCCCCc1ccccc1)c1ccc(C2N(c3ccccc3)C(=O)CS2(=O)=O)o1` (centres undefined), the IC50 falls from 508 nM to 41 nM (12-fold). The second is the more potent here.

Compared with `Cc1ccnc(N2C(=O)CS[C@H]2c2cccc(C(=O)NCCCCn3cccn3)c2)c1`, `Cc1ccnc(N2C(=O)C[S+]([O-])C2c2cccc(C(=O)NCCCCn3cccn3)c2)c1` (centres undefined) is lower in IC50: greater than 10000 nM for the first, 3120 nM for the second.

Going from `COCCCCNC(=O)c1cccc(C2N(c3ccccn3)C(=O)C[S+]2[O-])n1` (centres undefined) to `O=C(NCCCCc1ccccc1)c1cccc(C2N(c3cccc(F)c3)C(=O)C[S+]2[O-])c1` (centres undefined), the IC50 falls from greater than 1000 nM to 83 nM. The second is the more potent here.

Going from `O=C(NCCCCc1ccccc1)c1cccc(C2N(c3ccc(-c4ccccc4)cc3)C(=O)CS2(=O)=O)c1` (centres undefined) to `C#Cc1cc(C(=O)NCCCCc2ccccc2)cc(C2N(c3ccccn3)C(=O)CS2(=O)=O)c1` (centres undefined), the IC50 falls from greater than 10000 nM to 32 nM. The second is the more potent here.

Work on `COc1cccc(N2C(=O)CS(=O)(=O)C2N(CCCCc2ccccc2)C(=O)c2ccccc2)c1` (centres undefined) yielded an IC50 of 68 nM.

Tested on: HOS-TE85
Assay: Inhibition of colony formation in human MNNG/HOS cells at 4 uM incubated for 10 days by crystal violet staining based light microscopic analysis
Format: functional, cell-based
Conditions: time 10.0 day

With `CNC(=O)c1cc(Oc2ccc(NC(=O)Nc3ccc(Cl)c(C(F)(F)F)c3)cc2)ccn1` [SORAFENIB] the inhibition was “Active”.
